In experiment [1] the target is T1, NS3/NS4A-2 (full-length HCV NS3 protease complexed with NS4A-2) (Hepatitis C virus genotype 1a, UniProt P27958).
T1 construct: Recombinant E. coli or Baculovirus full-length NS3; host or cells: E. coli or baculovirus (insect cells)
As to the kind of experiment: NS3 inhibition assay (NS3-NS4 protease assay). The conditions noted are these: recombinant full-length NS3/NS4A-2, RETS1 substrate, kinetic fluorescence read; read-out: NS3-NS4 IC50. The class given is biochemical. As for the experimental part:
Recombinant E. coli or Baculovirus full-length NS3 was diluted to 3.33 μM with assay buffer and transferred material to an eppendorf tube and place in water bath in 4° C. refrigerator. The appropriate amount of NS4A-2 to 8.3 mM in assay buffer was added to equal the volume of NS3 in step 2.1.1 (conversion factor −3.8 mg/272 μL assay buffer). The material was transferred to an eppendorf tube and place in water bath in 4° C. refrigerator.
After equilibration to 4° C., equal volumes of NS3 and NS4A-2 solutions were combined in an eppendorf tube, mix gently with a manual pipettor, and incubate mixture for 15 minutes in the 4° C. water bath. Final concentrations in the mixture are 1.67 μM NS3, 4.15 mM NS4A-2 (2485-fold molar excess NS4A-2).
After 15 minutes at 4° C., the NS3/NS4A-2 eppendorf tube was removed and place it in a room temperature water bath for 10 minutes. NS3/NS4A-2 was aliquoted at appropriate volumes and store at −80° C. (E. coli NS3 run at 2 nM in assay, aliquot at 25 μL. BV NS3 run at 3 nM in assay, aliquot at 30 μL).
Sample compounds were dissolved to 10 mM in DMSO then diluted to 2.5 mM (1:4) in DMSO. Typically, compounds were added to an assay plate at 2.5 mM concentration, yielding upon dilution a starting concentration of 50 microM in the assay inhibition curve. Compounds were serial diluted in assay buffer to provide test solutions at lower concentrations.
The E. coli. NS3/NS4A-2 was diluted to 4 nM NS3 (1:417.5 of 1.67 μM stock−18 μL1.67 μM stock+7497 μL assay buffer). The BV NS3/NS4A-2 was diluted to 6 nM NS3 (1:278.3 of 1.67 μM stock−24 μL1.67 μM stock+6655 μL assay buffer). Using the manual multichannel pipettor, careful not to introduce bubbles into the plate, add 50 μL assay buffer to wells A01-H01 of a black Costar 96-well polypropylene storage plate.
Using the manual multichannel pipettor, careful not to introduce bubbles into the plate, add 50 μL of diluted NS3/NS4A-2 from step 2.2.6 to wells A02-H12 of plate in step 2.2.7. Using the manual multichannel pipettor, careful not to introduce bubbles into the plate, transfer 25 μL of the wells in drug dilution plate in step 2.2.5 to corresponding wells in assay plate in step 2.2.8. Change tips on multichannel pipettor for each row of compounds transferred. Using the manual multichannel pipettor, careful not to introduce bubbles into the plate, mix the wells from the assay plate in step 2.2.9 by aspirating and dispensing 35 μL of the 75 μL in each well five times. Change tips on multichannel pipettor for each row of wells mixed. Cover plate with a polystyrene plate lid and pre-incubate the plate from step 2.2.10 containing NS3 protease and sample compounds 10 minutes at room temperature. While plate from step 2.2.11 is pre-incubating, dilute RETS1 substrate in a 15 mL polypropylene centrifuge tube. Dilute RETS1 substrate to 8 μM (1:80.75 of 646 μM stock−65 μL 646 μM stock+5184 μL assay buffer).
After the plate in step is done pre-incubating, and using the manual multichannel, add 25 μL of substrate to all wells on the plate. Quickly mix the plate as in step 2.2.10, mixing 65 μL of the 100 μL in the wells.
Read the plate in kinetic mode on the Molecular Devices SpectraMax Gemini XS plate reader. Reader settings: Read time: 30 minutes, Interval: 36 seconds, Reads: 51, Excitation λ: 335 nm, Emission λ: 495 nm, cutoff: 475 nm, Automix: off, Calibrate: once, PMT: high, Reads/well: 6, Vmax pts: 21 or 28/51 depending on length of linearity of reaction
IC50s are determined using a four parameter curve fit equation, and converted to Ki's using the following Km's: • Full-length E. coli NS3−2.03 μM • Full-length BV NS3−1.74 μM • where Ki=IC50/(1+[S]/Km)) • Quantitation by ELISA of the Selectable Marker Protein, Neomycin Phosphotransferase II (NPTII) in the HCV Sub-Genomic Replicon, GS4.3

For experiment [2], the system named is HCV sub-genomic replicon (1377/NS3-3') in HuH-7 hepatoma cells (GS4.3). Nature of the experiment: Quantitation by ELISA of NPTII in the HCV sub-genomic replicon, GS4.3. The class given is cell-based, hepatitis C virus (HCV). The conditions noted are these: Hepatitis C virus, Huh-7; GS4.3 cells, 72 h incubation, NPTII ELISA; read-out: Replicon EC50. As for the experimental part:
The HCV sub-genomic replicon (1377/NS3-3′, accession No. AJ242652), stably maintained in HuH-7 hepatoma cells, was created by Lohmann et al. Science 285: 110-113 (1999). The replicon-containing cell culture, designated GS4.3, was obtained from Dr. Christoph Seeger of the Institute for Cancer Research, Fox Chase Cancer Center, Philadelphia, Pa.
GS4.3 cells were maintained at 37° C., 5% CO2, in DMEM (Gibco 11965-092) supplemented with L-glutamine 200 mM (100×) (Gibco25030-081), non-essential amino acids (NEAA) (Biowhittaker 13-114E), heat-inactivated (HI) Fetal Bovine Serum (FBS) (Hyclone SH3007.03) and 750 μg/mL geneticin (G418)(Gibco 10131-035). Cells were sub-divided 1:3 or 4 every 2-3 days.
24 h prior to the assay, GS4.3 cells were collected, counted, and plated in 96-well plates (Costar 3585) at 7500 cells/well in 100 μL standard maintenance medium (above) and incubated in the conditions above. To initiate the assay, culture medium was removed, cells were washed once with PBS (Gibco 10010-023) and 90 μl Assay Medium (DMEM, L-glutamine, NEAA, 10% HI FBS, no G418) was added. Inhibitors were made as a 10× stock in Assay Medium, (3-fold dilutions from 10 μM to 56 pM final concentration, final DMSO concentration 1%), 10 μL were added to duplicate wells, plates were rocked to mix, and incubated as above for 72 h.
An NPTII Elisa kit was obtained from AGDIA, Inc. (Compound direct ELISA test system for Neomycin Phosphotransferase II, PSP 73000/4800). Manufacturer's instructions were followed, with some modifications. 10×PEB-1 lysis buffer was made up to include 500 μM PMSF (Sigma P7626, 50 mM stock in isopropanol). After 72 h incubation, cells were washed once with PBS and 150 μL PEB-1 with PMSF was added per well. Plates were agitated vigorously for 15 minutes, room temperature, then frozen at −70° C. Plates were thawed, lysates were mixed thoroughly, and 100 μl were applied to an NPTII Elisa plate. A standard curve was made. Lysate from DMSO-treated control cells was pooled, serially diluted with PEB-1 with PMSF, and applied to duplicate wells of the ELISA plate, in a range of initial lysate amount of 150 μL-2.5 μL. In addition, 100 μL buffer alone was applied in duplicate as a blank. Plates were sealed and gently agitated at room temperature for 2 h. Following capture incubation, the plates were washed 5×300 μL with PBS-T (0.5% Tween-20, PBS-T was supplied in the ELISA kit). For detection, a 1× dilution of enzyme conjugate diluent MRS-2 (5×) was made in PBS-T, into which 1:100 dilutions of enzyme conjugates A and B were added, as per instructions. Plates were resealed, and incubated with agitation, covered, room temperature, for 2 h. The washing was then repeated and 100 μL of room temperature TMB substrate was added. After approximately 30 minutes incubation (room temperature, agitation, covered), the reaction was stopped with 50 μL 3M sulfuric acid. Plates were read at 450 nm on a Molecular Devices Versamax plate reader.
Inhibitor effect was expressed as a percentage of DMSO-treated control signal, and inhibition curves were calculated using a 4-parameter equation: y=A+((B−A)/(1+((C/x)^D))), where C is half-maximal activity or EC50.
For orientation: In an ELISA, binding on a coated surface is turned into a signal by an enzyme label.

What is called IC50 is the concentration that inhibits the measured activity by half. In general, EC50 refers to the midpoint of the concentration-response curve.

Some results are limits rather than exact numbers.

T1 sequence (P27958 1027-1657, one chain of several): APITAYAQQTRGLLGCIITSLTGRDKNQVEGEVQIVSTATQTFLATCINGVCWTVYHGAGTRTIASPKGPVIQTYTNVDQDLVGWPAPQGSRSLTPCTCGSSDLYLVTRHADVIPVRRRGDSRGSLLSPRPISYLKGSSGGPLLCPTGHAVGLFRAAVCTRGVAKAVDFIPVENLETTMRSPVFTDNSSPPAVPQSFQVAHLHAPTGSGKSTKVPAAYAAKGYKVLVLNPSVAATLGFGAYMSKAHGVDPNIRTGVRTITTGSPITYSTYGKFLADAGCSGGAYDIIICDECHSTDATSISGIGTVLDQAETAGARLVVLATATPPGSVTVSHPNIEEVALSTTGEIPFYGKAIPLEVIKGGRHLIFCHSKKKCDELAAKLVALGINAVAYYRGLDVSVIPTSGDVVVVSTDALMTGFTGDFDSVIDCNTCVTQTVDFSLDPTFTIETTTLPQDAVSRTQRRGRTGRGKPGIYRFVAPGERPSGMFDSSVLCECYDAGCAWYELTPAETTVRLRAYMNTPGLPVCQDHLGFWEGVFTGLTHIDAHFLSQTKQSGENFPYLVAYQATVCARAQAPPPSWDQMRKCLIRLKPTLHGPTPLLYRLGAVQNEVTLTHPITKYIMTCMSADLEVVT

On to `C=CCCCCC[C@H](Nc1ccc(F)cc1)C(=O)N1C[C@H](OC(=O)N2Cc3cccc(F)c3C2)C[C@H]1C(=O)N[C@]1(C(=O)NS(=O)(=O)C2CC2)C[C@H]1C=C` [Compound 35, [(3R,5S)-5-((1R,2S)-1-(cyclopropylsulfonylcarbamoyl)-2-vinylcyclopropylcarbamoyl)-1-((S)-2-(4-fluorophenylamino)non-8-enoyl)pyrrolidin-3-yl]4-floroisoindoline-2-carboxylate], for which, in experiment [1], the 50% inhibitory concentration (IC50) was under 100 nM. Besides, the half-maximal effective concentration (EC50) in experiment [2] was in the range of 1000 to 10000 nM.
Turning to `CC[C@@H]1C[C@]1(NC(=O)[C@@H]1C[C@@H](OC(=O)N2Cc3cccc(Cl)c3C2)CN1C(=O)[C@@H](Nc1cccc(C(F)(F)F)c1)C(C)(C)C)C(=O)NOC(C)(C)C` [Compound 71], the 50% inhibitory concentration (IC50) in experiment [1] lay in the range of 100 to 1000 nM. In experiment [2], the concentration giving a half-maximal response (EC50) was in the range of 100 to 1000 nM.
Consider `CC[C@@H]1C[C@]1(NC(=O)[C@@H]1C[C@@H](OC(=O)N2Cc3cccc(F)c3C2)CN1C(=O)[C@@H](Nc1cncc(C(F)(F)F)c1)C(C)C)C(=O)NS(=O)(=O)C1CC1` [Compound 48, [(3R,5S)-5-((1R,2R)-1-(cyclopropylsulfonylcarbamoyl)-2-ethylcyclopropylcarbamoyl)-1-((S)-3-methyl-2-(5-(trifluoromethyl)pyridin-3-ylamino)butanoyl)pyrrolidin-3-yl]4-fluoroisoindoline-2-carboxylate], for which, in experiment [1], the IC50 is under 100 nM. Moreover, the EC50 in experiment [2] is 100 to 1000 nM.
Take `C=C[C@@H]1C[C@]1(NC(=O)C1Cc2cc(Oc3cccc(Cl)c3)ccc2CN1C(=O)[C@@H](Nc1cccc(C(C)(C)C)c1)C(C)C)C(=O)NS(=O)(=O)C1CC1` (stereo partly drawn) [Compound 13, 2-((S)-2-(3-tert-butylphenylamino)-3-methylbutanoyl)-6-(3-chlorophenoxy)-N-((1R,2S)-1-(cyclopropylsulfonylcarbamoyl)-2-vinylcyclopropyl)-1,2,3,4-tetrahydroisoquinoline-3-carboxamide]: the IC50 in experiment [1] was under 100 nM. For the same compound, the 50% effective concentration (EC50) in experiment [2] lay within 10000 to 50000 nM.
The corresponding values for `CC[C@@H]1C[C@]1(NC(=O)[C@@H]1C[C@@H](OC(=O)N2Cc3cccc(F)c3C2)CN1C(=O)[C@@H](Nc1cccc(C#N)c1)C(C)C)C(=O)NS(=O)(=O)C1CC1` [Compound 51, [(3R,5S)-1-((S)-2-(3-cyanophenylamino)-3-methylbutanoyl)-5-((1R,2R)-1-(cyclopropylsulfonylcarbamoyl)-2-ethylcyclopropylcarbamoyl)pyrrolidin-3-yl]4-fluoroisoindoline-2-carboxylate] are under 100 nM and 100 to 1000 nM.
The like results for `CC[C@@H]1C[C@]1(NC(=O)[C@@H]1C[C@@H](OC(=O)N2Cc3cccc(Cl)c3C2)CN1C(=O)[C@@H](Nc1cccc(C(F)(F)F)c1)C(C)(C)C)C(=O)NOCC1CC1` [Compound 72] were, in that order, 100 to 1000 nM and 100 to 1000 nM.
Take `C=C[C@@H]1C[C@]1(NC(=O)[C@@H]1C[C@@H](OC(=O)N2Cc3cccc(F)c3C2)CN1C(=O)[C@@H](Nc1cccc(C(F)(F)F)c1)C(C)(C)C)C(=O)NS(=O)(=O)C1CC1` [Compound 43, [(3R,5S)-5-((1R,2S)-1-(cyclopropylsulfonylcarbamoyl)-2-vinylcyclopropylcarbamoyl)-1-((S)-3,3-dimethyl-2-(3-(trifluoromethyl)phenylamino)butanoyl)pyrrolidin-3-yl]4-fluoroisoindoline-2-carboxylate]: in experiment [1], the half-inhibitory concentration (IC50) is under 100 nM. For the same compound, the concentration for a half-maximal effect (EC50) in experiment [2] was under 100 nM.
As for `CC[C@@H]1C[C@]1(NC(=O)[C@@H]1C[C@@H](OC(=O)N2Cc3cccc(Cl)c3C2)CN1C(=O)[C@@H](Nc1cc(F)cc(C(F)(F)F)c1)C(C)(C)C)C(=O)NS(=O)(=O)C1CC1` [Compound 73, (3R,5S)-5-((1R,2R)-1-(cyclopropylsulfonylcarbamoyl)-2-ethylcyclopropylcarbamoyl)-1-((S)-2-(3-fluoro-5-(trifluoromethyl)phenylamino)-3,3-dimethylbutanoyl)pyrrolidin-3-yl 4-chloroisoindoline-2-carboxylate], the IC50 in experiment [1] was under 100 nM.
“[(3R,5S)-5-(((1R,2R)-1-(Cyclopropylsulfonylcarbamoyl)-2-ethylcyclopropyl)carbamoyl)-1-((S)-2-(5-isopropylthiazol-2-ylamino)-3,3-dimethylbutanoyl)pyrrolidin-3-yl]4-chloroisoindoline-2-carboxylate [Compound 65]”: in experiment [1], the IC50 was under 100 nM.
For the compound `CC[C@@H]1C[C@]1(NC(=O)[C@@H]1C[C@@H](OC(=O)N2Cc3cccc(Cl)c3C2)CN1C(=O)[C@@H](Nc1cc(F)cc(C(F)(F)F)c1)C(C)(C)C)C(=O)NS(=O)(=O)C1CC1` [Compound 77], in experiment [2], the EC50 is under 100 nM.

For the origin of these results see patent publication US7932277B2, “Peptide inhibitors of hepatitis C virus replication” (InterMune, Inc., priority 2007, dated 2011).
